Data reported in patent publication US8853219B2, “Compounds and compositions for cognition-enhancement, methods of making, and methods of treating” (NeuroSolis, Inc., priority 2010, dated 2014).
Where two headings read alike, the source gives them in different places.

Key:
[1] = target: T1, human muscarinic M1 receptors (Homo sapiens, UniProt P11229); experiment: Stimulation of inositol phosphate production in A9L cells, human M1 (IPOne TR-FRET); type: cell-based
T1 construct: host or cells: A9L cells
T1 sequence (P11229 1-460): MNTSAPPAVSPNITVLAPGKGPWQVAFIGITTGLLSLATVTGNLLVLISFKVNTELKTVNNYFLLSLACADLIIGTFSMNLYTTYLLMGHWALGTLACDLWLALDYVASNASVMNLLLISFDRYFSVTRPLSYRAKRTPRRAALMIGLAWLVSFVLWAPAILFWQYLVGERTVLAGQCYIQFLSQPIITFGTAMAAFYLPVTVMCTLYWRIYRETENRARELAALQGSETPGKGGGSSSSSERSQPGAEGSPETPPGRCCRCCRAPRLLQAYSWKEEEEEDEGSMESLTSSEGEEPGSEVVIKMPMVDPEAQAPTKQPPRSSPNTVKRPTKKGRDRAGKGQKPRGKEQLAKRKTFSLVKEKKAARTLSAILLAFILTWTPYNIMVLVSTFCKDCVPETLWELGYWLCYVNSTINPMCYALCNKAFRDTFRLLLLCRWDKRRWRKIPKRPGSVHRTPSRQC
Method: (§1) Muscarinic M1 and M3 agonist activity was evaluated by measuring the stimulation of inositol phosphate (IP) production in the presence of lithium chloride from A9L cells transfected with expression plasmids containing human muscarinic M1 and M3 receptors, respectively. The cell lines were a gift from Professor W Messer, and the methods were as described in Tejada F R et al. J. Med. Chem. 2006; 49: 7518-31 except that the assay was scaled down to run in 384 well plates, and IP was measured in the cell lysates using the non-isotopic IPOne TR-FRET assay (CIS-BIO, Inc).
(§2) Cells were grown to 90% confluence in 384 well hi-base plates (Greiner Bio-One), compounds were added at suitable concentrations in growth medium containing 10 mM LiCL, buffered with an extra 10 mM HEPES (pH7.4), and incubated for 60 minutes at 37° C. Cells were lysed and assayed for IP following the manufacturer's instructions.
(§3) The value for a full agonist is 100%, while partial agonists give values below 100%.

[2] = target: T2, human muscarinic M3 receptors (Homo sapiens, UniProt P20309); experiment: Stimulation of inositol phosphate production in A9L cells, human M3 (IPOne TR-FRET); type: cell-based
T2 construct: host or cells: A9L cells
Method: as §1, §2, §3

[3] = Immediate release capsules in healthy male volunteers: serum pharmacokinetics, metabolites, cholinergic side effects; type: in vivo, human
Method: A single 5 mg capsule or 5×0.2 mg capsules (1 mg total dose) were administered orally to healthy male volunteer human subjects with 125 ml of water. Six such subjects receiving the 5 mg dose, and a different 6 subjects received the 1 mg dose.
Subjects were monitored, among other things, for typical signs of muscarinic cholinergic action, such as increased salivation, lachrimation and diaphoresis. Venous blood samples were drawn at various intervals after dosing from each subject into standard tubes for bioanalytical and pharmacokinetic analysis. The blood was allowed to clot, and the serum separated, using common clinical laboratory techniques. Serum samples were stored at −20 deg C. until used for analysis.
MCD-386HCl, which exists in serum principally as the protonated form of MCD-386, was assayed in clinical serum samples as follows. 200 μL aliquots of serum samples were spiked with 50.0 μL of diluent for subject samples and QC samples and 50 μL of the appropriate intermediate standard solution for standards. Twenty five microliters (25.0 μL) of working internal standard stock solution and 40.0 μL of 10 N sodium hydroxide was then added and the samples were vortex mixed. Three milliliters (3.00 mL) of ethyl acetate was added followed by 5 minutes of vigorous vortexing and centrifugation. The top organic layer was transferred to a clean tube, evaporated to dryness, and the sample was reconstituted with 100 μL of diluent (0.1% formic acid). A 10 μL aliquot of this reconstituted sample was injected into Phenomenex Synergy 4μ POLAR-RP, 75×2.0 mm (P/N 00C-4336-B0) on a Waters Acuity HPLC LC system, and eluted using a gradient of from 12% to 90% acetonitrile containing 0.1% formic acid/0.1% formic acid in water. The eluant flow of the LC was injected by Turbo Ion Spray (positive ion) into a Sciex API 4000 (Applied Biosystems). The MS/MS transitions monitored were 181.1 m/z to 111.0 m/z for MCD-386HCl and 186.1 m/z to 111.1 m/z for the internal standard, D5-MCD-386HCl. The calibration curve was linear between 0.100 ng/mL and 50.0 ng/mL for MCD-386HCl. The lower limit of quantitation (LLOQ) was 0.100 ng MCD-386HCl per mL of serum. MCD-386HCl concentrations are expressed as free base.
The bioanalytical method for the extraction of metabolites from serum samples entailed adding 450 uL of a 90% acetonitrile+0.1% formic acid solution to 50 uL of the serum samples. The samples were vortexed and centrifuged at 16,000x g at 4° C. for 10 minutes. The supernatants were transferred to 3K molecular weight cut-off (MWCO) spin filters (Pall, Nanosep, #82031-346). Samples were filtered by centrifugation at 13,000×g at 4° C. for 20 minutes. The filtrates were transferred to a 96-well plate and sealed for LC/MS/MS analysis. The system used for this analysis was a Shimadzu Prominence HPLC system. […] The autosampler was maintained at 4° C. Injection volumes for all samples and standards were 40 uL. MRM methods for two possible metabolites were made. An API 3200 triple-quadrupole mass spectrometer with a Turbo V source (Applied Biosystems) was used, following commonly used procedures which would be readily set up by a person skilled in the art of LC-MS/MS. The counts of the characteristic parent and product ions of the free base metabolites were converted to concentration units by comparison with a standard calibration curve.
The bioanalytical results were analyzed using Win Nonlin software and common pharmacokinetic methods known to those skilled in the art.

[4] = tested on: inositol phosphate signaling pathway; experiment: In vivo measurement of tissue inositol phosphate signaling pathway activation (hippocampus, salivary gland); details: rat, Compound 3 1 mg/kg
Method: Experimental compounds or drug substances were administered using standard techniques to Long Evans Hooded rats weighing 225 to 350 grams, and which had been pretreated with a subcutaneous injection of lithium chloride at a suitable dose between 3 and 10 mmoles per kg. At suitable times the animals were briefly anesthetized using 5% isoflurane and euthanized by decapitation. The brains and submaxillary salivary glands were rapidly dissected out, and the hippocampuses were dissected from the brains. The dissected tissues were homogenized in a suitable volume of ice-cold phosphate-buffered saline containing 10 mM lithium chloride, pH7.4, using a tissue homogenizer, and used immediately or frozen in aliquots at −80 degC for future use. The concentration of inositol-1-phosphate was determined in the homogenates using the IPOne TR-FRET assay (CisBio cat no 621PAPEB), following the manufacturer's instruction

Long Evans Hooded rats = experiment: In vivo measurement of salivation; design: species or system rat; details: Compound 3 0.3 mg/kg
Method: Suitable doses of test compounds or drug substances were administered using standard techniques to Long Evans Hooded rats weighing 225 to 350 grams, or CD-1 mice weighing 30 to 50 grams, which had been anesthetized using 2-3.5%% of isoflurane in oxygen. The animals were placed slightly head-down on an inclined, heated ramp. Rectal temperature was monitored using a thermocouple and the temperature of the heating pad was adjusted manually to maintain normal body temperature. Saliva was collected from the mouth by absorption onto pre-weighed slips of filter paper. The filter paper was changed periodically and the amount of saliva was measured by weighing the filter paper slips.

rats = experiment: Salivation after transdermal iontophoretic co-delivery of agonist and antagonist from one patch; type: in vivo, rat; details: anesthetized rats, device with 1 mg Compound 3 plus 0.01 mg antagonist
Method: Experimental compounds and drug substances were delivered transdermally in rats using iontophoresis as follows. The fur was shaved from the backs of Long Evans Hooded rats weighing 225 to 325 grams, using electric clippers. Experimental compounds and drug substances were formulated at suitable concentrations an aqueous mixture of the following composition:
The polyvinyl alcohol/water was heated to 95 degC until it became clear, then the other constituents were added and mixed well. The mixture was introduced into suitable molds containing a disc-shaped cavity 2.2 cm diameter and 2.2 mm deep. Molds may be fabricated using two glass sheets separated by a silicone rubber sheet with suitable sized cavities and filling ports cut-outs. The molds were subject to 3 freeze-thaw cycles at −80 degC and 20 degC until a firm cryogel was obtained. The gels were separated from the molds and trimmed into a circular shape. The gel was placed in a silicone rubber casing with one face in contact with a circular silver foil anodic electrode (22 mm dia/250 microns thick), and the assembly was placed on the shaved skin of the rat such that the other face was in contact with the skin on one side of the back of the rat. The rubber casing formed a seal over and around the gel/electrode assembly. […] This was placed on the other side of the shaved back of the rat, the edges of the gel discs being about 20 mm apart at their nearest point. A DC voltage was applied across the two patches from a constant-current DC power supply and the voltage adjusted to obtain the desired current, such that the skin of the animal completed the electrical circuit.
The devices were placed on shaved backs of anesthetized rats and salivation was measured.
The animals were placed slightly head-down on an inclined, heated ramp. Rectal temperature was monitored using a thermocouple and the temperature of the heating pad was adjusted manually to maintain normal body temperature. Saliva was collected from the mouth by absorption onto pre-weighed slips of filter paper. The filter paper was changed periodically and the amount of saliva was measured by weighing the filter paper slips.

[5] = potency class relative to carbachol

T2 sequence (P20309 whole entry): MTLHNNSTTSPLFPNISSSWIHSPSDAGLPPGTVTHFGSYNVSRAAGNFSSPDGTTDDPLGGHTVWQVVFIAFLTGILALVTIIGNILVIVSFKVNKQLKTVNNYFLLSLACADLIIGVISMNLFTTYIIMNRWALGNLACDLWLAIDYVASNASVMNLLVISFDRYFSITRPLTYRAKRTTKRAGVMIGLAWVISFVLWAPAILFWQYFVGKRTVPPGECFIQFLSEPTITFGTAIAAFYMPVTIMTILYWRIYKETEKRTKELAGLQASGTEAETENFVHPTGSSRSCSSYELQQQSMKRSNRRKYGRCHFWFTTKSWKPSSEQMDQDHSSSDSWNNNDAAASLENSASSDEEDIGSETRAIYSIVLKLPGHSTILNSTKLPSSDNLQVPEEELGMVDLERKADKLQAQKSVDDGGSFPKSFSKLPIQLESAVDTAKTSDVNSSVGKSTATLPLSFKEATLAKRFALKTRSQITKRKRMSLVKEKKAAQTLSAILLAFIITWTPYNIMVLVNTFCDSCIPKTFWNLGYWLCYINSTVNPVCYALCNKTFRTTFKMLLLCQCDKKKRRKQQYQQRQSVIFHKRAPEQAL

`Clc1cccc(Cl)c1N=C1NCCN1` [Clonidine] showed a PAMPA units of 7.95.
With `Cc1noc(C2(F)CCCNC2)n1` (stereo not shown) [Compound 35, 5-(3-fluoropiperidin-3-yl)-3-methyl-1,2,4-oxadiazole] the “huM1/A9L ED50 relative to CCh” value [1, 5] was “− (potency < 0.5-0.1x CCh)”, the “huM3/A9L ED50 relative to CCh” value [2, 5] was “−− (potency < 0.1x CCh)” and the PAMPA units (PAMPA test) was 16.3.
For `Cc1noc(C2CN3CCC2CC3)n1` (stereo not shown) [Compound 37, 3-methyl-5-(quinuclidin-3-yl)-1,2,4-oxadiazole, reference compound], the “huM1/A9L ED50 relative to CCh” value [1] was “++ (key: ++: potency > 10x CCh; +: potency 2-10x CCh; +/−: potency 0.5-2x CCh; −: potency < 0.5-0.1x CCh; −−: potency < 0.1x CCh; inactive: potency too low to determine)”, the “Potency and efficacy at M1 muscarinic receptors” value ([1]; Table 12) was “highly potent” and the “Selectivity for M1 versus M3 receptors” value ([1]; huM1/A9L versus huM3/A9L) was “essentially non-selective between M1 and M3 receptors”. The “huM3/A9L ED50 relative to CCh” value [2] was “++ (key: ++: potency > 10x CCh; +: potency 2-10x CCh; +/−: potency 0.5-2x CCh; −: potency < 0.5-0.1x CCh; −−: potency < 0.1x CCh; inactive: potency too low to determine)” and the PAMPA units (PAMPA test) was 3.02.
With `CCc1noc(C2CN=CNC2)n1` (stereo not shown) [MCD-386HCl, 5-(3-ethyl-1,2,4-oxadiazol-5-yl)-1,4,5,6-tetrahydropyrimidine] the “Observable cholinergic side effects” value ([3]; 1 mg total dose cohort) was “none of the subjects in the 1 mg total dose cohort experienced any observable cholinergic side effects”, the Diaphoresis ([3]; 5 mg cohort) was “Two of these latter subjects experienced mild, transient diaphoresis that resolved within a short period, and two subjects experienced moderate diaphoresis” and the Hypersalivation ([3]; 5 mg cohort) was “One of the latter subjects also experienced mild hypersalivation”. The “Observable cholinergic side effects” value ([3]; 5 mg cohort) was “two subjects experienced no observable side effects, and four subjects showed signs of muscarinic cholinergic activity” and the “Main metabolite in serum” value ([3]; 5 mg dose cohort) was “identified in the serum samples of five out of six subjects”.
With `C[N+]1(C)[C@@H]2C[C@@H](OC(=O)[C@H](CO)c3ccccc3)C[C@H]1[C@@H]1O[C@@H]12` [NMS, N-methylscopolamine] the “Block of increase in salivary gland inositol phosphate caused by Compound 3” value ([4]; antagonist 0.003 mg/kg) was “some breakthrough activation”, the “Block of increase in salivary gland inositol phosphate caused by Compound 3” value ([4]; antagonist 0.03 mg/kg to 0.01 mg/kg) was “nearly as effective as 0.1 mg/kg” and the “Block of increase in salivary gland inositol phosphate caused by Compound 3” value ([4]; antagonist 0.1 mg/kg) was “completely block”. The “Inhibition of increase in hippocampal inositol phosphate caused by Compound 3” value ([4]; antagonist 0.1 mg/kg) was “does not inhibit”, the “Decrease in salivation caused by Compound 3” value (Long Evans Hooded rats) was “dose-dependent decrease in salivation” and the “Reduction of salivation caused by transdermal iontophoretic delivery of Compound 3” value (“Reduction of salivation caused” for short) (rats) was “greatly reduced”.
Work on `CNC(=C[N+](=O)[O-])NCCSCc1ccc(CN(C)C)o1` [Ranitidine] yielded a PAMPA units of 0.26.
For `NC(=O)C(c1ccccc1)(c1ccccc1)[C@@H]1CCN(CCc2ccc3c(c2)CCO3)C1` [darifenacin], the “Block of increase in salivary gland inositol phosphate caused by Compound 3” value ([4]; antagonist 0.1 mg/kg) was “less effective” and the “Reduction of salivation caused” value (rats) was “reduced salivation, but were less effective”.
In the case of `C[N+]1(C)CCC(OC(=O)C(O)(c2ccccc2)C2CCCC2)C1` (stereo not shown) [glycopyrrolate], the “Block of increase in hippocampal inositol phosphate caused by Compound 3” value ([4]; antagonist 0.03 mg/kg) is reported as “without blocking”, the “Block of increase in salivary gland inositol phosphate caused by Compound 3” value ([4]; antagonist 0.03 mg/kg) is reported as “can block” and the “Reduction of salivation caused” value (rats) is reported as “greatly reduced”.
In the case of `CCN(CC)CC#CCOC(=O)C(O)(c1ccccc1)C1CCCCC1` (stereo not shown) [oxybutinin], the “Block of increase in salivary gland inositol phosphate caused by Compound 3” value ([4]; antagonist 0.1 mg/kg) is reported as “less effective” and the “Reduction of salivation caused” value (rats) is reported as “reduced salivation, but were less effective”.
With `CC(C)[N+](C)(CCOC(=O)C1c2ccccc2Oc2ccccc21)C(C)C` [propantheline] the “Block of increase in hippocampal inositol phosphate caused by Compound 3” value ([4]; antagonist 0.03 mg/kg) was “without blocking”, the “Block of increase in salivary gland inositol phosphate caused by Compound 3” value ([4]; antagonist 0.03 mg/kg) was “can block” and the “Reduction of salivation caused” value (rats) was “greatly reduced”.
